A short description of the data set: Solid-form stability of crystalline anhydrate Form II (conversion to Anhydrate III). The format is physicochemical. The settings on record: converts to crystalline Anhydrate III when heated to 160° C. for 1 hour or in solutions of ethanol, isoamyl alcohol and isopropyl acetate. The protocol:
Anhydrate Form II is prepared from a solution of the crystalline hydrate form at a concentration of >100 mg/mL in acetonitrile. The solution is sonicated for approximately 5 minutes to induce crystallization. Anhydrate H is metastable. It converts to crystalline Anhydrate III when heated to 160° C. for 1 hour or in solutions of ethanol, isoamyl alcohol and isopropyl acetate. The X Ray Powder Diffraction peaks are shown below in Table 4.

Consider `CCC[C@H](c1ccc(C(=O)NCCC(=O)O)cc1)[C@H](c1ccc(Cl)cc1)c1c[nH]c2c(F)cc(C)cc12` [Anhydrate H, N-(4-{(1S)-1-[(R)-(4-chlorophenyl)(7-fluoro-5-methyl-1H-indol-3-yl)methyl]butyl}benzoyl)-β-alanine], for which the “physical stability of the crystalline form” value is listed as “metastable”.
